# Where two headings read alike, the source gives them in different places.
# Assays:
# [1] = test system: green peach aphid (Myzus persicae); assay: Control of green peach aphid, contact activity; format: in vivo; details: topical, 72 hours, 25° C., read-out: Percentage mortality of green peach aphid, Contact
# Method: (§1) A wettable powder was prepared by homogeneously mixing and pulverizing three times in a hammer mill 10 parts by weight of one of the test compounds indicated in Tables 2 and 3, 4 parts by weight of sodium dodecylbenzene sulphonate, 2 parts by weight of polyvinyl alcohol and 84 parts by weight of clay. The wettable powder thus prepared was then diluted with water to the concentration indicated in Table 1, and then 0.01% w/v of Gramin (a spreader) was added.
# The resulting diluted solution was then sprayed onto the leaves of a cabbage bearing green peach aphids (Myzus persicae) in an amount of 10 ml per leaf. The leaf stalk of each leaf was then placed in a 30 ml bottle containing water and the mouth of the bottle was plugged with cotton wool. The bottles were then left in a room maintained at 25° C.
# [2] = test system: green peach aphid (Myzus persicae); assay: Control of green peach aphid, systemic activity; format: in vivo; details: 72 hours, 25° C., read-out: Percentage mortality of green peach aphid, Systemic
# Method: as §1
# The suspensions were then poured into 30 ml bottles. Leaves of the Chinese mustard "Komatsuna" bearing green peach aphids were then placed in the bottles and the mouths of the bottles were plugged with cotton wool. The bottles were placed in a room maintained at 25° C. for 72 hours, after which the percentage mortality of the aphids was assessed.
# [3] = test system: green peach aphids of a strain resistant to organic phosphate insecticides; assay: Activity against green peach aphids (mixed formulation); format: in vivo; details: Myzus persicae, topical, read-out: Percentage mortality
# Method: Emulsifiable concentrates containing a total of 25% by weight of active ingredient or ingredients were prepared as described in Example 22 and diluted with water to the concentrations given in the following Table 6. Each emulsion contained as active ingredient Compound No. 1, Compound No. 9 or the known insecticide isoxathion alone or contained a mixture of isoxathion and Compound No. 1 or No. 9. The diluted emulsions were sprayed, in an amount of 10 ml per leaf, onto the leaves of the Chinese mustard "Komatsuna" bearing green peach aphids of a strain known to be resistant to organic phosphate insecticides. The leaf stalks of the leaves were placed into 30 ml bottles and the mouths of the bottles were plugged with cotton wool. After maintaining the leaves at 25° C. for 72 hours, the percentage mortality was assessed and the results are shown in Table 6. The expected percentage mortality of the combinations of Compound No. 1 or No. 9 with Isoxation is shown in parentheses in the table.
# [4] = test system: brown planthopper (Nilaparvata lugens); assay: Activity against the brown planthopper, dust on rice seedlings; format: in vivo; details: topical, 10 mg per pot, resistant strain, final instar larvae, 72 hours, 25° C., read-out: Percentage mortality, Brown planthopper
# Method: (§2) A dust was prepared by homogeneously mixing and pulverizing twice with a pulverizer 2 parts by weight of each in turn of the test compounds indicated in Table 4 and 98 parts by weight of clay. The dusts were then sprayed onto rice seedlings planted in plastic pots and covered with a plastic cylinder in amounts sufficient to provide 10 mg of the […] dust per pot (corresponding to 1.4 kg of dust per 10 ares). 10-15 of the final instar larvae of the green rice leafhopper (Naphotettix cincticeps) or of the brown planthopper (Nilaparvata lugens) of strains known to be resistant both to conventional organic phosphorus and carbamate insecticides were released into each pot. After maintaining the pots at 25° C. for 72 hours, the percentage mortality of the larvae was assessed. Each test was carried out twice and the results averaged.
# [5] = test system: green rice leafhopper (Naphotettix cincticeps); assay: Activity against the green rice leafhopper, dust on rice seedlings; format: in vivo; details: Nephotettix cincticeps, topical, 10 mg per pot, resistant strain, final instar larvae, 72 hours, 25° C., read-out: Percentage mortality, Green rice leafhopper
# Method: as §2
# brown planthopper = assay: Activity against the brown planthopper (mixed formulation); format: in vivo; details: Nilaparvata lugens, topical; for mortality at 50 mg: read-out: percentage mortality, insecticide alone (Compound 1 0 mg)
# Method: Soil and water were placed into plastic pots having inside diameters and heights each of about 10 cm to prepare the pots for submerged cultivation,with water to a depth of about 2 cm. Rice seedlings were then planted in the pots and maintained in a greenhouse, until they had grown to a height of about 15 cm.
# Dusts were prepared, each containing 0.1% w/w of Compound No. 1 or of the known organic phosphate or carbamate insecticides listed in Table 5, and these were homogeneously applied, in the amounts specified in the Table, to each pot. 10-15 of the final instar larvae of the brown planthopper were then released onto each pot. The pots were then covered and maintained at 25° C. for 72 hours, after which the percentage mortality of the larvae was assessed.
# The experiments were conducted using the known organic phosphate and carbamate insecticides either alone or together with Compound No. 1 (50 mg). The percentage mortality achieved using Compound No. 1 alone in an amount of 50 mg was also assessed and found to be 0%. The expected percentage mortality of the combination of Compound No. 1 with the known organic phosphate and carbamate insecticides was calculated by the method of C. I. Bliss [Ann. Appl. Biol. 26, 585 (1939)] and is shown in parentheses in the Table.
# [6] = Toxicity test in mice, mortality after 7 days (Litchfield and Wilcoxon); set-up: species or system mice (ddY-SLC); details: mouse, in vivo
# Method: Each of the compounds listed in Table 1 was administered in the form of a suspension, to which 0.5% w/v gum tragacanth had been added, to a group of 5 week old ddY-SLC series mice. Each test group consisted of 10 male and 10 female mice. The LD50 value was calculated, by the method of Litchfield and Wilcoxon [J. Pharmac. Exp. Ther. 96, 99 (1949)], from the mortality rate after 7 days.
# [7] = 0.1% dust 50 mg, 72 hours, 25° C.
Compound,mortality at 50 ppm [1] [%],mortality at 6.25 ppm [2] [%],other results
"COCc1cc(OC(=O)N(C)C)no1 [compound 15, 3-Dimethylcarbamoyloxy-5-methoxymethylisoxazole]",84,100,
"CCOP(=S)(OCC)Oc1cc(-c2ccccc2)on1 [Isoxathion, O,O-Diethyl O-(5-phenyl-3-isoxazolyl)phosphorothioate, reference compound]",,,"mortality at 25 ppm ([3]; Isoxathion 25 ppm, 72 hours, 25° C.): 0%; mortality at 50 ppm ([3]; Isoxathion 50 ppm, 72 hours, 25° C.): 4.4%"
"CC(C)SCc1cc(OC(=O)N(C)C)no1 [compound 4, 3-Dimethylcarbamoyloxy-5-isopropylthiomethylisoxazole]",81,96,
"CC[S+]([O-])Cc1cc(OC(=O)N(C)C)no1 (stereo not shown) [compound 6, 3-Dimethylcarbamoyloxy-5-ethylsulphinylmethylisoxazole]",88,100,
"CSCc1onc(OC(=O)N(C)C)c1Br [compound 13, 4-Bromo-3-dimethylcarbamoyloxy-5-methylthiomethylisoxazole]",100,100,mortality at 12.5 ppm [1]: 99%; mortality at 1.56 ppm [2]: 100%
"CCCSCc1cc(OC(=O)N(C)C)no1 [compound 3, 3-Dimethylcarbamoyloxy-5-propylthiomethylisoxazole]",86,100,mortality at 10 mg/pot [4]: 68%; mortality at 10 mg/pot [5]: 68%
"CNC(=O)Oc1cccc2ccccc12 [NAC, 1-Naphthyl N-methylcarbamate]",,,mortality at 50 mg (brown planthopper; 72 h): 29.2%
"CNC(=O)Oc1ccccc1C(C)C [MIPC, 2-Isopropylphenyl N-methylcarbamate]",,,mortality at 50 mg (brown planthopper; [7]): 25%
"CCSCc1onc(OC(=O)N(C)C)c1Cl [compound 10, 4-Chloro-3-dimethylcarbamoyloxy-5-ethylthiomethylisoxazole]",97,100,
"CN(C)C(=O)Oc1noc(CS(C)(=O)=O)c1Cl [Compound No. 12, 4-Chloro-3-dimethylcarbamoyloxy-5-methylsulphonylmethylisoxazole]",82,90,
"CCSCc1cc(OC(=O)N(C)C)no1 [Compound No. 2, 3-Dimethylcarbamoyloxy-5-ethylthiomethylisoxazole]",100,100,mortality at 10 mg/pot [4]: 95%; mortality at 10 mg/pot [5]: 67%; LD50 at 168 h ([6]; female mice): 104 mg/kg; LD50 at 168 h ([6]; male mice): 125 mg/kg
"CNC(=O)Oc1cccc(C)c1 [MTMC, 3-Tolyl N-methylcarbamate]",,,mortality at 50 mg (brown planthopper; [7]): 20.8%
"CN(C)C(=O)Oc1noc(C[S+](C)[O-])c1Cl (stereo not shown) [compound 11, 4-Chloro-3-dimethylcarbamoyloxy-5-methylsulphinylmethylisoxazole]",100,100,
"CCS(=O)(=O)Cc1cc(OC(=O)N(C)C)no1 [compound 8, 3-Dimethylcarbamoyloxy-5-ethylsulphonylmethylisoxazole]",80,85,
"CN(C)C(=O)Oc1cc(CS(C)(=O)=O)on1 [compound 7, 3-Dimethylcarbamoyloxy-5-methylsulphonylmethylisoxazole]",82,85,
"CSCc1onc(OC(=O)N(C)C)c1I [compound 14, 3-Dimethylcarbamoyloxy-4-iodo-5-methylthiomethylisoxazole]",86,100,
"Cc1cc(OC(=O)N(C)C)no1 [3-Dimethylcarbamoyloxy-5-methylisoxazole, reference compound]",84,89,mortality at 12.5 ppm [1]: 34%; mortality at 10 mg/pot [4]: 22%; mortality at 1.56 ppm [2]: 74%; mortality at 10 mg/pot [5]: 9%; LD50 at 168 h ([6]; male/female mice): 31.2 mg/kg
"CN(C)C(=O)Oc1cc(C[S+](C)[O-])on1 (stereo not shown) [Compound No. 5, 3-Dimethylcarbamoyloxy-5-methylsulphinylmethylisoxazole]",86,100,
"CSCc1cc(OC(=O)N(C)C)no1 [Compound No. 1, 3-Dimethylcarbamoyloxy-5-methylthiomethylisoxazole]",100,100,"mortality at 5 ppm ([3]; 72 h): 25.8%; mortality at 10 ppm ([3]; 72 h): 59.8%; mortality at 12.5 ppm [1]: 83%; mortality at 10 mg/pot [4]: 100%; mortality at 50 mg/pot (brown planthopper; 72 h, read-out: percentage mortality, Compound No. 1 alone): 0%; mortality at 1.56 ppm [2]: 100%; mortality at 10 mg/pot [5]: 65%; LD50 at 168 h ([6]; female mice): 109 mg/kg; LD50 at 168 h ([6]; male mice): 110 mg/kg"
"CSCc1onc(OC(=O)N(C)C)c1Cl [Compound No. 9, 4-Chloro-3-dimethylcarbamoyloxy-5-methylthiomethylisoxazole]",100,100,mortality at 2.5 ppm ([3]; 72 h): 20.1%; mortality at 5 ppm ([3]; 72 h): 38.4%; mortality at 12.5 ppm [1]: 90%; mortality at 10 mg/pot [4]: 100%; mortality at 1.56 ppm [2]: 100%
